Laboratory results: patent US7919465B2, “Peptide mimotopes that inhibits interaction between a platelet receptor and a platelet receptor ligand” (priority 2006, dated 2011)
Read-outs that look alike come from different tables or passages of the source. Non-standard residues stand in square brackets, D forms with d. No end group written: not given here.

Key:
[1] = biological target: T1, fibrinogen (Homo sapiens, UniProt P02671+P02675+P02679); experiment: Binding of D-amino acid-containing sequences to fibrinogen
T1 sequence (P02671 20-629 limits assumed): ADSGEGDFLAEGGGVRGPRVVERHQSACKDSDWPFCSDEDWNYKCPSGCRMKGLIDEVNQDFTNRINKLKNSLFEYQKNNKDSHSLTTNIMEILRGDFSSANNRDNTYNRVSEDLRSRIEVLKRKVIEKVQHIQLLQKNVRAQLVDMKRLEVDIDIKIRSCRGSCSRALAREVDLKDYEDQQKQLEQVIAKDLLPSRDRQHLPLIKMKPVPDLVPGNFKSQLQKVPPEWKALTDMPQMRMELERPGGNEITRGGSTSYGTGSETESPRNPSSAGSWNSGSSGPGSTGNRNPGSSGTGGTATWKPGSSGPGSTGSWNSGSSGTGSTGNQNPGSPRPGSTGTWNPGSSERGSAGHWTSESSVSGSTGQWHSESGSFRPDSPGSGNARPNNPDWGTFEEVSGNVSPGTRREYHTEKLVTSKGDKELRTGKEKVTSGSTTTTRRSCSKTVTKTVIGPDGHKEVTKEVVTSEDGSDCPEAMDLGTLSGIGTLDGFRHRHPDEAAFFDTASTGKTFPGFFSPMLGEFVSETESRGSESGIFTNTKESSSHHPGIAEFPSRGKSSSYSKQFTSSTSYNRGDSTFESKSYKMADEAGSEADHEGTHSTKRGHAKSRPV
T1 sequence (P02675 31-491): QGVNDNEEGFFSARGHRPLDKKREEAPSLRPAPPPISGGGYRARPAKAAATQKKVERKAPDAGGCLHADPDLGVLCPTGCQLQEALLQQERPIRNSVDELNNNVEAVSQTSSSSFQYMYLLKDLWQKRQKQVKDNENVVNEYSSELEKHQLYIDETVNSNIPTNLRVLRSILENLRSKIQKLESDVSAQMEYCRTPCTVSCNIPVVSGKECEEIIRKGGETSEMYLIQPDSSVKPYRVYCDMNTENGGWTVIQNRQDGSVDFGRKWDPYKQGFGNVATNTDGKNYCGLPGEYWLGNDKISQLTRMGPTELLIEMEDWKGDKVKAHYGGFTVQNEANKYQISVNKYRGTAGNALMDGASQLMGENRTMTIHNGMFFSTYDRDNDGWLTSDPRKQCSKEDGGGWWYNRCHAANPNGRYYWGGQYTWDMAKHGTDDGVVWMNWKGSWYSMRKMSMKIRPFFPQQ
T1 sequence (P02679 27-433 limits assumed): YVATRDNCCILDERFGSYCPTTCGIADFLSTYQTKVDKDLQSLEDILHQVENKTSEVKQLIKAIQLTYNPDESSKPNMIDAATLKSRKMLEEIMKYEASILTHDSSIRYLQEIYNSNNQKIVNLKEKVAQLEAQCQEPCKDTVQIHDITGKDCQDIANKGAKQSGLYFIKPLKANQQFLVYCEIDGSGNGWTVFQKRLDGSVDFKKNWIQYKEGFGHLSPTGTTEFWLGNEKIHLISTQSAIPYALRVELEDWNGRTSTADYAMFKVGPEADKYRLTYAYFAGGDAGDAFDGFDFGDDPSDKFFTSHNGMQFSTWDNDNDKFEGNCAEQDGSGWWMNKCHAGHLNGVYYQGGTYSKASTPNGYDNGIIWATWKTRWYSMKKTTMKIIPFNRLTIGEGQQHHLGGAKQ
Text: These peptides can be used to pull/capture fibrinogen from a solution as well as to inhibit the interaction between fibrinogen and its cognate receptor(s).

[2] = system: vWf binding to resting platelets; experiment: Flow cytometry of vWf binding to resting platelets; type: cell-based, human
Method: (§1) In order to prepare human platelets for testing, as approved by Canadian Blood Services' Ethics Board, samples of whole blood were drawn from healthy, consenting donors into 2.7-4.0 mL citrated tubes (BD, USA). Platelet rich plasma (PRP) was prepared from whole blood by centrifugation in a Beckman (CS-6R) bench-top centrifuge (r=203.57 mm, Beckman Coulter, USA) 164×g for 15 minutes. PRP from a number of unrelated donors were evaluated on an Adiva 120 Hematology Analyzer (Bayer, Canada) and standardized to a concentration of 300×10^9 platelets/L in HEPES buffered saline (HBS, 10 mM HEPES, 150 mM NaCl, pH 7.4).
(§2) 40 μL aliquots of HBS were mixed with 5 μL PRP and 5 μL of the material to be tested: 500 kDa native HPG; free peptides; or peptide-conjugated HPG at 1.0×10^−3 M to 1.0×10^−9 M. After 40 minutes of incubation at ambient temperature, 5 μL 0.01 mg/mL FITC-conjugated polyclonal sheep anti-human vWf IgG (Abcam, USA) or 5 μL of 2 mg/mL PE-conjugated monoclonal mouse anti-human CD62 IgG (Beckman-Coulter, Canada) was added and incubation was continued in the dark for 30 min. Thereafter the samples were diluted and fixed with 1.0 mL 0.2% formolsaline (0.2% formaldehyde, 150 mM NaCl, pH 7.20) before analysis on a FACS Canto flow cytometer (BD, USA).
(§3) The effect of native HPG, free peptides, and peptide-conjugated HPG on activated platelets using modifications of the above assay systems was also examined. Platelets were treated with either 5 μL 4.2 mg/mL ristocetin (Chrono-Log, USA) or 100 U thrombin (T6884, Sigma-Aldrich, Canada) with 5 μL GPRP fibrin inhibitor (G5779, Sigma-Aldrich, Canada) dissolved in HBS. This was done to determine whether the peptides and the peptide-conjugates can mitigate vWf and thrombin mediated platelet effects. Controls included incubation with mouse IgG-FITC/IgG-PE (Beckman-Coulter, Canada) of the same isotype, and/or omitting the conjugate. As a result, native HPG, free peptides, and peptide-conjugated HPG neither did they increase vWf binding to resting platelets (Table 5) or they could trigger platelet activation.

[3] = system: GPIIbIIIa; experiment: Ristocetin-mediated GPIIbIIIa activation probed by PAC-1 antibody, flow cytometry; type: cell-based, human; conditions: at IC50 concentration, 60 minutes, PAC-1, p<0.05
Method: To show inhibition of the GPIb-vWf interaction in PRP, activation had to target the plasma component, specifically vWf, by ristocetin, rather than the consequences of platelet activators such as thrombin or ADP. Ristocetin mediated GPIb signaling was detected through GPIIbIIIa activation and flow cytometry. 5 μL resting PRP were incubated with […] (SEQ ID NO:8) or L100 at their respective IC50 concentrations for 60 minutes and 5 μL 4.2 mg/mL ristocetin was used to induce platelet activation. Consequent GPIIbIIIa activation was probed via a monoclonal FITC-conjugated PAC-1 antibody to the active conformation of GPIIbIIIa (BD, Canada).

[4] = biological target: T2, GPIb-vWf interaction (Homo sapiens, UniProt P07359); experiment: Flow cytometry inhibition of vWf binding to ristocetin-activated platelets in PRP; type: cell-based
T2 construct: Platelet rich plasma (PRP) was prepared from whole blood by centrifugation; endogenous in cells
Method: as §1
Thereafter the samples were diluted and fixed with 1.0 mL 0.2% formolsaline (0.2% formaldehyde, 150 mM NaCl, pH 7.20) before analysis on a FACS Canto flow cytometer (BD, USA).
The effect of native HPG, free peptides, and peptide-conjugated HPG on activated platelets using modifications of the above assay systems was also examined. Platelets were treated with either 5 μL 4.2 mg/mL ristocetin (Chrono-Log, USA) or 100 U thrombin (T6884, Sigma-Aldrich, Canada) with 5 μL GPRP fibrin inhibitor (G5779, Sigma-Aldrich, Canada) dissolved in HBS. […] Controls included incubation with mouse IgG-FITC/IgG-PE (Beckman-Coulter, Canada) of the same isotype, and/or omitting the conjugate.

[5] = system: platelets; experiment: Aggregometry, % aggregation on activation; type: cell-based, human; parameters: concentration or dose not given beside the values; conditions: ristocetin activation
Method: as §1, §3
The inhibition of platelet agglutination by vWf was observed both by light microscopy and lumiaggregometry (Table 5). No clumping was seen when resting platelets were incubated with free peptides, native HPG, or peptide-conjugated HPG.

[6] = system: CD62/P-selectin on platelet surfaces; experiment: Flow cytometry of surface CD62 expression on platelets; type: cell-based, human; conditions: for Surface CD62 Expression, Activated Platelets: thrombin-activated platelets
Method: as §1, §2
as §3, with “activation. […]” for “activation.”

| Substance | ability to bind to fibrinogen [1] | vWf Binding, Resting Platelets [2] | GPIIbIIIa activation upon ristocetin stimulation [3] | Surface CD62 Expression, Resting Platelets [6] | Surface CD62 Expression, Activated Platelets [6] | further results |
| --- | --- | --- | --- | --- | --- | --- |
| FKWSWEWQGQEAYYD ([dF][dK][dW][dS][dW][dE][dW][dQ]G[dQ][dE][dA][dY][dY][dD]) | bind to fibrinogen |  |  |  |  |  |
| KYQCYAPAHPSYVNY (also: D-amino acids, places not given here) | bind to fibrinogen |  |  |  |  |  |
| FRIYYVYTTSQQDSC ([dF][dR][dI][dY][dY][dV][dY][dT][dT][dS][dQ][dQ][dD][dS][dC]) | bind to fibrinogen |  |  |  |  |  |
| CGGGGGGSHAYIGLKDR [L-pep] |  | 24 ± 4′ | significantly attenuated | 18 ± 1 | 72 ± 8″ | IC50 [4]: 48 µM; Aggregometry % Aggregation on Activation [5]: 5 ± 5% |
| L100: HPG 500 kDa conjugate with about 100 L-peptides per HPG molecule (CGGGGGGSHAYIGLKDR; also: conjugated to HPG 500 kDa, about 100 L-peptides per HPG molecule, site not given here) |  | 23 ± 2′ | significantly attenuated | 20 ± 3 | 71 ± 5″ | inhibition of vWf binding to platelets (in words) [4]: effective inhibitors; IC50 ([4]; expressed as peptide concentration, read-out: Peptide Concentration at Ic50): 210 µM; IC50 ([4]; inhibition of platelet-vWf binding, molar concentration of peptide or conjugate, read-out: Ic50): 1.1 µM |
| SMTSMCYLIGAPKYK (also: D-amino acids, places not given here) | bind to fibrinogen |  |  |  |  |  |
